pKi: −log10 of the molar value. Read-outs that look alike come from different tables or passages of the source.

The target in this assay is T1, ACE-2 (Homo sapiens, UniProt Q9BYF1).
T1 construct: a stop codon inserted after the serine immediately preceding the transmembrane domain; made in house; host or cells: CHO K1 cells (transient transfection, purified from conditioned medium)
Nature of the assay: ACE-2 Competitive Substrate Assay (ACS Assay). It is filed as biochemical.

Where [1] appears, read: Ki class per key, compounds tested in 5% DMSO, 12 compound concentrations, 25° C., Ki=Kiapp/(1+[S]/Km), read-out: Human ACE-2 Activity.
[2] abbreviates: Table 3, very good ACE-2 inhibiting compounds, species not given, read-out: ACE-2 Activity, Ki.

T1 sequence (Q9BYF1 18-740 limits assumed): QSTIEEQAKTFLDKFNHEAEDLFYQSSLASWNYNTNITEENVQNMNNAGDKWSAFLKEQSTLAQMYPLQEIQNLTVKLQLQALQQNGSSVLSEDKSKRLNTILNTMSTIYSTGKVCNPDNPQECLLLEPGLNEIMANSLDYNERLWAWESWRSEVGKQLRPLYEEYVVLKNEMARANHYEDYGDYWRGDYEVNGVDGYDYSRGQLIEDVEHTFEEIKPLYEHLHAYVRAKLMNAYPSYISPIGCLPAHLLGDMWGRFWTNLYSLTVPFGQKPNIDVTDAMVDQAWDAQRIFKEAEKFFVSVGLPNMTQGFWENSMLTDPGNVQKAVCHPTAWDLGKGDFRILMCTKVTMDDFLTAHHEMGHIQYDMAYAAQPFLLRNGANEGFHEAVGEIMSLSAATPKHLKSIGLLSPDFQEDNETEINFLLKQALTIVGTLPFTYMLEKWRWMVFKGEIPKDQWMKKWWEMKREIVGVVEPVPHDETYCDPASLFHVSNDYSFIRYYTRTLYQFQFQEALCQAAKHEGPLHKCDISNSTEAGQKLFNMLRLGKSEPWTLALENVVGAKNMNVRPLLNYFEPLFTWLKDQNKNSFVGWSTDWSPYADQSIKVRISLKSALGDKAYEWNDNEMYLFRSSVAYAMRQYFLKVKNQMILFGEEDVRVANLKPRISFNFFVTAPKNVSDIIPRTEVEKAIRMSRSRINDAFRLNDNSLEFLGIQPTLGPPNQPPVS

Consider `CC(C)C[C@H](N[C@@H](Cc1ccc(C(=O)Nc2ccccc2)cc1)C(=O)O)C(=O)O` [QF, 2-[1-Carboxy-2-(4-phenylcarbamoyl-phenyl)-ethylamino]-4-methyl-pentanoic acid], for which, under setting [1], the pKi is 6.30 to 7.00.

For `CC(C)C[C@H](N[C@@H](Cc1ccc(C(=O)NCc2ccccc2)cc1)C(=O)O)C(=O)O` [QG, 2-[2-(4-Benzylcarbamoyl-phenyl)-1-carboxy-ethylamino]-4-methyl-pentanoic acid], the pKi under setting [1] is < 6.30.

For `CC(C)C[C@H](N[C@@H](Cc1ccc(C(=O)NC2CCCCC2)cc1)C(=O)O)C(=O)O` [QH, 2-[1-Carboxy-2-(4-cyclohexylcarbamoyl-phenyl)-ethylamino]-4-methyl-pentanoic acid], the pKi under setting [1] is < 6.30.

On to `CC(C)C[C@H](N[C@@H](Cc1ccccc1C#N)C(=O)O)C(=O)O` [QI, 2-[1-Carboxy-2-(2-cyano-phenyl)-ethylamino]-4-methyl-pentanoic acid], for which, under setting [1], the pKi is 6.30 to 7.00.

Turning to `CC(C)C[C@H](N[C@@H](Cc1ccc(Oc2ccccc2)cc1)C(=O)O)C(=O)O` [QJ, 2-[1-Carboxy-2-(4-phenoxy-phenyl)-ethylamino]-4-methyl-pentanoic acid], under setting [1], the pKi was 6.30 to 7.00.

Regarding `CC(C)C[C@H](N[C@@H](Cc1ccc(OCc2csc3ccc(Cl)cc23)cc1)C(=O)O)C(=O)O` [QK, 2-[1-Carboxy-2-[4-(5-chloro-benzo[b]thiophen-3-ylmethoxy)-phenyl]-ethylamino]-4-methyl-pentanoic acid], the pKi under setting [1] was > 7.00 and the pKi under setting [2] was > 7.30.

Turning to `CC(C)C[C@H](N[C@@H](Cc1cc(-c2ccc(Cl)c(Cl)c2)on1)C(=O)O)C(=O)O` [QL, 2-[1-Carboxy-2-[5-(3,4-dichloro-phenyl)-isoxazol-3-yl]-ethylamino)-4-methylpentanoic acid], the pKi is > 7.00 under setting [1] and 7.00 to 7.30 under setting [2].

For `CC(C)C[C@H](N[C@@H](Cc1ccc(Oc2cc(Cl)cc(Cl)c2)cc1)C(=O)O)C(=O)O` [QM], the pKi under setting [1] is 6.30 to 7.00.

`CC(C)C[C@H](N[C@@H](Cc1ccccc1Oc1cc(Cl)cc(Cl)c1)C(=O)O)C(=O)O` [QN]: the pKi is, setting by setting: under setting [1], > 7.00; under setting [2], > 7.30.

In the case of `CC(C)C[C@H](N[C@@H](Cc1ccccc1OCc1cccc(Cl)c1)C(=O)O)C(=O)O` [QO, 2-[1-Carboxy-2-[2-(3-chloro-benzyloxy)-phenyl]-ethylamino]-4-methyl-pentanoic acid], the pKi under setting [1] was < 6.30.

As to `CC(C)C[C@H](N[C@@H](Cc1ccc(Oc2ccc(F)cc2)cc1)C(=O)O)C(=O)O` [QP, 2-[1-Carboxy-2-[4-(4-fluoro-phenoxy)-phenyl]-ethylamino]-4-methyl-pentanoic acid], the pKi runs as follows: under setting [1], > 7.00; under setting [2], 7.00 to 7.30.

Take `Cc1ccc(-n2ccc(C[C@H](N[C@@H](CC(C)C)C(=O)O)C(=O)O)n2)cc1` [QQ, 2-[1-Carboxy-2-(1-p-tolyl-1H-pyrazol-3-yl)-ethylamino]-4-methyl-pentanoic acid]: the pKi under setting [1] is > 7.00 and the pKi under setting [2] is 7.00 to 7.30.

In the case of `CC(C)C[C@H](N[C@@H](Cc1ccc(NC(=O)C2CCCC2)cc1)C(=O)O)C(=O)O` [QR, 2-[1-Carboxy-2-[4-(cyclopentanecarbonyl-amino)-phenyl]-ethylamino]-4-methyl-pentanoic acid], the pKi under setting [1] was 6.30 to 7.00.

For the compound `CC(C)C[C@H](N[C@@H](Cc1ccc(NC(=O)C(C)(C)C)cc1)C(=O)O)C(=O)O` [QS, 2-{1-Carboxy-2-[4-(2,2-dimethyl-propionylamino)-phenyl]-ethylamino}-4-methyl-pentanoic acid], the pKi under setting [1] was 6.30 to 7.00.

Take `CC(C)C[C@H](N[C@@H](Cc1ccccc1OCc1csc2ccc(Cl)cc12)C(=O)O)C(=O)O` [QT, 2-{1-Carboxy-2-[2-(5-chloro-benzo[b]thiophen-3-ylmethoxy)-phenyl]-ethylamino}-4-methyl-pentanoic acid]: the pKi under setting [1] is < 6.30.

As to `CC(C)C[C@H](N[C@@H](Cc1cc(-c2ccc(Cl)cc2)on1)C(=O)O)C(=O)O` [QU, 2-(1-Carboxy-2-[5-(4-chloro-phenyl)-isoxazol-3-yl]-ethylamino]-4-methyl-pentanoic acid], the pKi was > 7.00 under setting [1] and > 7.30 under setting [2].

Take `CC(C)C[C@H](N[C@@H](Cc1cc(-c2ccccc2Cl)on1)C(=O)O)C(=O)O` [QV, 2-[1-Carboxy-2-[5-(2-chloro-phenyl)-isoxazol-3-yl]-ethylamino]-4-methyl-pentanoic acid]: the pKi under setting [1] was > 7.00.

`CC(C)C[C@H](N[C@@H](Cc1ccc(OCC2COc3ccc(F)cc32)cc1)C(=O)O)C(=O)O` (stereo partly shown) [QW, 2-[1-Carboxy-2-[4-(5-fluoro-2,3-dihydro-benzofuran-3-ylmethoxy)-phenyl]-ethylamino]-4-methyl-pentanoic acid]: the pKi is, setting by setting: under setting [1], > 7.00; under setting [2], > 7.30.

Take `CC(C)C[C@H](N[C@@H](Cc1ccc(OCc2csc3ccccc23)cc1)C(=O)O)C(=O)O` [QX, 2-{2-[4-(Benzo[b]thiophen3-ylmethoxy)-phenyl]-1-carboxy-ethylamino]-4-methyl-pentanoic acid]: the pKi under setting [1] is > 7.00.

As for `CC(C)C[C@H](N[C@@H](Cc1ccc(C(=O)O)n1Cc1cc(Cl)cc(Cl)c1)C(=O)O)C(=O)O` [QY, 5-[2-Carboxy-2-(1-carboxy-3-methyl-butylamino)-ethyl]-1-(3,5-dichloro-benzyl)-1H-pyrrole-2-carboxylic acid], the pKi runs as follows: under setting [1], > 7.00; under setting [2], > 7.30.

Regarding `CC(C)C[C@H](N[C@@H](Cc1ccc(C(=O)C(F)(F)F)n1CCC1CCCCC1)C(=O)O)C(=O)O` [QZ, 2-[1-Carboxy-2-[1-(2-cyclohexyl-ethyl)-5-(2,2,2-trifluoro-acetyl)-1H-pyrrol-2-yl]-ethylamino]-4-methylpentanoic acid], the pKi is, setting by setting: under setting [1], > 7.00; under setting [2], > 7.30.

`CC(C)C[C@H](N[C@@H](Cc1ccc([N+](=O)O)cc1)C(=O)O)C(=O)O` [RA, 2-[1-Carboxy-2-(4-nitro-phenyl)-ethylamino]-4-methyl-pentanoic acid]: under setting [1], the pKi was 6.30 to 7.00.

Take `COc1ccccc1C(=O)Nc1ccc(C[C@H](N[C@@H](CC(C)C)C(=O)O)C(=O)O)cc1` [RB, 2-[1-Carboxy-2-[4-(2-methoxy-benzoylamino)-phenyl]-ethylamino]-4-methyl-pentanoic acid]: the pKi by setting is: under setting [1], > 7.00; under setting [2], > 7.30.

On to `CC(C)C[C@H](N[C@@H](Cc1ccc(N(Cc2cc(F)cc(F)c2)Cc2cc(F)cc(F)c2)cc1)C(=O)O)C(=O)O` [RD, 2-(2-(4-[Bis-(3,5-difluoro-benzyl)-amino]-phenyl)-1-carboxy-ethylamino)-4-methyl-pentanoic acid], for which the pKi under setting [1] is 6.30 to 7.00.

For the origin of these results see US7045532B2 (Millennium Pharmaceuticals, Inc., priority 1999, dated 2006).
